US8293729B2 (Boehringer Ingelheim International GmbH, priority 2009, dated 2012)

What follows are molecules tested against T1, human GPR119 receptor (Homo sapiens, UniProt Q8TDV5, S329A/T327A) (assay: cAMP assay (LANCE cAMP-384) in HEK293 cells stably expressing mutant human GPR119 receptor). Conditions: HEK293, 20 min; 10 μM; the 28th table; read-out: stimulation in % at 10 μM.
T1 construct: N-terminal leader […]; expressed in transfected cells
T1 sequence (Q8TDV5 with tags, fused parts or gaps T327A/S329A): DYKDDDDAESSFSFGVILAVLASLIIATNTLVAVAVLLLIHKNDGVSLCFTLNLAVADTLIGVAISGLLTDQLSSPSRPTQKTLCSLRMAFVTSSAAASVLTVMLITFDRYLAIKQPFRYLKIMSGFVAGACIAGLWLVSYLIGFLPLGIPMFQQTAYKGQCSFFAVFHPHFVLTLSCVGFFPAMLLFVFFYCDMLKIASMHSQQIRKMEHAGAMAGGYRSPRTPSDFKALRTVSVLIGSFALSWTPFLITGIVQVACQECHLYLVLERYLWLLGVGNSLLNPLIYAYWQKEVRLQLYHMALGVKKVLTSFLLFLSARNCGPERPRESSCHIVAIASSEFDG
Assay type: cell-based
Summary of the method: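 HEK293 cells stably expressing human GPR119 (T327A/S329A, modified N-terminus), 1000 cells/well, exposed to compound for 20 min at 37° C. cAMP quantified by LANCE TR-FRET against a standard curve; EC50 from 12 points, 30 μM to 100 pM, or % stimulation at 10 μM.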

Compound	activation at 10 µM
CC(C)OC(=O)N1CCC(ON=C2CCN(c3ncc(-n4cccn4)cn3)CC2)CC1 [Example 51-5]	96%

Same assay, conditions: HEK293, 20 min; 10 μM; the 30th table; read-out: stimulation in % at 10 μM

Compound	activation at 10 µM
CC(C)OC(=O)N1CCC(ON=C2CCN(c3ncc(CN4CCCC4=O)cc3F)CC2)CC1 [Example 54-4]	93%

Same assay, conditions: HEK293, 20 min; single concentration 10 μM; given where no EC50 value could be determined; read-out: % stimulation at 10 μM

Compound	activation at 10 µM
COc1ncc(-c2cc(F)c(N3CCC(=NOC4CCN(C(=O)OC(C)C)CC4)CC3)cc2F)c(OC)n1 [Example 27-31]	70%

Same assay, conditions: cAMP accumulation, HEK293 cells stably expressing mutant human GPR119; read-out: EC50

Compound	EC50
CC(C)OC(=O)N1CCC(ON=C2CCN(c3cc(F)c(-n4cncn4)cc3F)CC2)CC1 [Example 22-4]	33 nM
CSc1nc(N2CCC(=NOC3CCN(C(=O)OC(C)C)CC3)CC2)ncc1Br [Example 2-55]	> 10000 nM
Cc1cc(C(=O)O)nc(N2CCC(=NOC3CCN(C(=O)OC(C)C)CC3)CC2)n1 [Example 2-65]	> 10000 nM
CC(C)OC(=O)N1CCC(ON=C2CCN(c3cc(F)c([S+](C)[O-])cc3F)CC2)CC1 (stereo not drawn) [Example 2-41]	58 nM
CC(C)OC(=O)N1CCC(ON=C2CCN(c3cc(F)c(-n4cccn4)cc3F)CC2)CC1 [Example 22-3]	62 nM
CC(C)OC(=O)N1CCC(ON=C2CCN(c3cc(F)c(-n4cccc4)cc3F)CC2)CC1 [Example 22-2]	767 nM
CC(C)OC(=O)N1CCC(ON=C2CCN(c3cc(F)c(Cn4cccc5ncnc4-5)cc3F)CC2)CC1 [Example 14-7]	713 nM
Cc1noc(C)c1-c1cc(F)c(N2CCC(=NOC3CCN(C(=O)OC(C)C)CC3)CC2)cc1F [Example 27-2]	> 10000 nM
CC(C)OC(=O)N1CCC(ON=C2CCN(c3cc(F)c(C(=O)NCCC(=O)O)cc3F)CC2)CC1 [Example 30-2]	1150 nM
CC(C)OC(=O)N1CCC(ON=C2CCN(c3cc(O)ncc3F)CC2)CC1 [Example 2-74]	> 10000 nM
CC(C)OC(=O)N1CCC(ON=C2CCN(c3nncs3)CC2)CC1 [Example 2-14]	> 10000 nM
Cc1cc(N2CCC(=NOC3CCN(C(=O)OC(C)C)CC3)CC2)c(F)cc1C(N)=O [Example 2-76]	534 nM
CC(C)OC(=O)N1CCC(ON=C2CCN(c3cc(F)c(N(S(C)(=O)=O)S(C)(=O)=O)cc3F)CC2)CC1 [Example 2-63]	> 10000 nM
CC(C)OC(=O)N1CCC(ON=C2CCN(c3cc(F)c(CN4CCN(C(=O)OC(C)(C)C)CC4=O)cc3F)CC2)CC1 [Example 15-3]	408 nM
COCCN(C)Cc1cc(F)c(N2CCC(=NOC3CCN(C(=O)OC(C)C)CC3)CC2)cc1F [Example 5-5]	> 10000 nM
CC(C)OC(=O)N1CCC(ON=C2CCN(c3c(Cl)cncc3Cl)CC2)CC1 [Example 2-39]	1680 nM
CC(C)OC(=O)N1CCC(ON=C2CCN(c3cc(F)c(-c4ccc5[nH]ccc5c4)cc3F)CC2)CC1 [Example 27-32]	1380 nM
CC(C)OC(=O)N1CCC(ON=C2CCN(c3cc(F)c(C(=O)NCCN)cc3F)CC2)CC1 [Example 31-2]	348 nM
CC(C)OC(=O)N1CCC(ON=C2CCN(c3cc(F)c(CN(C)CCO)cc3F)CC2)CC1 [Example 5-3]	> 10000 nM
CC(C)OC(=O)N1CCC(ON=C2CCN(c3ncc(Br)cn3)CC2)CC1 [Example 2-17]	1180 nM

Same assay, conditions: the 15th table; read-out: EC50

Compound	EC50
CC(C)OC(=O)N1CCC(ON=C2CCN(c3cc(F)c(C(=O)N4CCC(CN(C)C)CC4)cc3F)CC2)CC1 [Example 29-47]	264 nM
CC(C)OC(=O)N1CCC(ON=C2CCN(c3cc(F)c(C(=O)NCCCN)cc3F)CC2)CC1 [Example 29-7]	42 nM
CC(C)OC(=O)N1CCC(ON=C2CCN(c3cc(F)c(C(=O)N4CCC(CN5CCCC5)CC4)cc3F)CC2)CC1 [Example 29-48]	69 nM
CC(C)OC(=O)N1CCC(ON=C2CCN(c3cc(F)c(C(=O)NCCN)cc3F)CC2)CC1 [Example 29-6]	381 nM

Same assay, conditions: the 19th table; unit inferred; read-out: EC 50

Compound	EC50
CCc1cnc(N2CCC(ON=C3CCN(c4cc(F)c(C(=O)NCC5CCCNC5)cc4F)CC3)CC2)nc1 (stereo not drawn) [Example 29-93]	56 nM
CCc1cnc(N2CCC(ON=C3CCN(c4cc(F)c(C(=O)N5CCCCC5CNC)cc4F)CC3)CC2)nc1 (stereo not drawn) [Example 29-136]	120 nM
CCc1cnc(N2CCC(ON=C3CCN(c4cc(F)c(C(=O)N5CCC(CN)CC5)cc4F)CC3)CC2)nc1 [Example 29-125]	168 nM
CCc1cnc(N2CCC(ON=C3CCN(c4cc(F)c(C(=O)NCC5CCCN5)cc4F)CC3)CC2)nc1 (stereo not drawn) [Example 29-122]	176 nM

Same assay, conditions: the 25th table; read-out: EC50

Compound	EC50
CC(C)OC(=O)N1CCC(ON=C2CCN(c3cc(F)c(/C=C/C#N)cc3F)CC2)CC1 [Example 39-2]	157 nM

Same assay, conditions: the 26th table; read-out: EC50

Compound	EC50
CC(C)OC(=O)N1CCC(ON=C2CCN(c3ncc(S(C)(=O)=O)cn3)CC2)CC1 [Example 46-4]	157 nM

Same assay, conditions: the 30th table; read-out: EC50

Compound	EC50
CC(C)OC(=O)N1CCC(ON=C2CCN(c3ncc(CS(C)(=O)=O)cc3F)CC2)CC1 [Example 54-7]	484 nM

Same assay, conditions: the 32nd table; read-out: EC50

Compound	EC50
Cc1cc(C)nc(N2CCC(ON=C3CCN(c4ccc(S(C)(=O)=O)cc4F)CC3)CC2)n1 [Example 63-18]	> 10000 nM
Cc1csc(N2CCC(ON=C3CCN(c4ccc(S(C)(=O)=O)cc4F)CC3)CC2)n1 [Example 63-17]	> 10000 nM
Cc1cc(C(F)(F)F)cc(N2CCC(ON=C3CCN(c4ccc(S(C)(=O)=O)cc4F)CC3)CC2)n1 [Example 63-13]	1490 nM

Same assay, conditions: the 33rd table; read-out: EC50

Compound	EC50
CCOC(=O)C1CC1COC(=O)N1CCC(ON=C2CCN(c3ccc(S(C)(=O)=O)cc3F)CC2)CC1 (stereo not drawn) [Example 64-31]	107 nM
CS(=O)(=O)c1ccc(N2CCC(=NOC3CCN(C(=O)OCCN4CCCCC4)CC3)CC2)c(F)c1 [Example 64-28]	> 10000 nM
CS(=O)(=O)c1ccc(N2CCC(=NOC3CCN(C(=O)OC4CNC4)CC3)CC2)c(F)c1 [Example 64-33]	> 10000 nM
CS(=O)(=O)c1ccc(N2CCC(=NOC3CCN(C(=O)OCCn4cccc4)CC3)CC2)c(F)c1 [Example 64-18]	461 nM

Same assay, conditions: the 34th table, compounds 65-1 to 65-24; read-out: EC50

Compound	EC50
C=C(C)OC(=O)N1CCC(ON=C2CCN(c3ccc(S(C)(=O)=O)cc3F)CC2)CC1 [Example 65-15]	64 nM
CS(=O)(=O)c1ccc(N2CCC(=NOC3CCN(C(=O)c4ccccc4)CC3)CC2)c(F)c1 [Example 65-21]	747 nM
CC(C)NC(=O)N1CCC(ON=C2CCN(c3ccc(S(C)(=O)=O)cc3F)CC2)CC1 [Example 65-8]	> 10000 nM

Same assay, conditions: the 36th table, compounds 66-1 to 66-51; read-out: EC50

Compound	EC50
CC(C)(C)CN1CCC(ON=C2CCN(c3ccc(S(C)(=O)=O)cc3F)CC2)CC1 [Example 66-22]	1360 nM
CS(=O)(=O)c1ccc(N2CCC(=NOC3CCN(Cc4ccccc4)CC3)CC2)c(F)c1 [Example 66-15]	982 nM
COc1ccc(CN2CCC(ON=C3CCN(c4ccc(S(C)(=O)=O)cc4F)CC3)CC2)cc1F [Example 66-38]	435 nM
CS(=O)(=O)c1ccc(N2CCC(=NOC3CCN(Cc4ncc[nH]4)CC3)CC2)c(F)c1 [Example 66-2]	> 10000 nM
CS(=O)(=O)c1ccc(N2CCC(=NOC3CCN(Cc4ccc(F)cc4)CC3)CC2)c(F)c1 [Example 66-33]	822 nM
Cc1c(CN2CCC(ON=C3CCN(c4ccc(S(C)(=O)=O)cc4F)CC3)CC2)cnn1C [Example 66-7]	> 10000 nM

Same assay, conditions: the 38th table, compounds 66-65 to 66-72; read-out: EC50

Compound	EC50
CNC(=O)c1cc(F)c(N2CCC(=NOC3CCN(Cc4ccc(C(F)(F)F)cc4)CC3)CC2)cc1F [Example 66-67]	155 nM
CNC(=O)c1cc(F)c(N2CCC(=NOC3CCN(Cc4ccc(-c5cncnc5)cc4)CC3)CC2)cc1F [Example 66-69]	2260 nM
CCCc1ccc(CN2CCC(ON=C3CCN(c4cc(F)c(C(=O)NC)cc4F)CC3)CC2)cc1 [Example 66-72]	109 nM

Same assay, conditions: the 39th table, compounds 67-1 to 67-3; read-out: EC50

Compound	EC50
Cc1ccc(N2CCC(ON=C3CCN(c4ccc(S(C)(=O)=O)cc4F)CC3)CC2)nc1 [Example 67-1, 1-(2-Fluoro-4-methanesulfonyl-phenyl)-piperidin-4-one O-(5′-methyl-3,4,5,6-tetrahydro-2H-[1,2′]bipyridinyl-4-yl)-oxime]	386 nM

Same assay, conditions: the 43rd table, compounds 75-1 to 75-38; read-out: EC50

Compound	EC50
CC(C)OC(=O)N1CCC(ON=C2CCN(c3cc(F)c(CC(=O)N4CCC[C@H](N)C4)cc3F)CC2)CC1 [Example 75-13]	116 nM
CC(C)OC(=O)N1CCC(ON=C2CCN(c3cc(F)c(CC(=O)NC[C@H]4CCCN4)cc3F)CC2)CC1 [Example 75-11]	161 nM
CC(C)OC(=O)N1CCC(ON=C2CCN(c3cc(F)c(CC(=O)N4CCC(CN(C)C)CC4)cc3F)CC2)CC1 [Example 75-38]	92 nM

Same assay, conditions: the 44th table, compounds 77-1 to 77-14; read-out: EC50

Compound	EC50
CCc1cnc(N2CCC(ON=C3CCN(c4cc(F)c(CC(=O)N5CCNCC5)cc4F)CC3)CC2)nc1 [Example 77-13]	39 nM
CCc1cnc(N2CCC(ON=C3CCN(c4cc(F)c(CC(=O)N5CCC[C@H](N)C5)cc4F)CC3)CC2)nc1 [Example 77-7]	45 nM
CCc1cnc(N2CCC(ON=C3CCN(c4cc(F)c(CC(=O)NC5CCN(C)CC5)cc4F)CC3)CC2)nc1 [Example 77-1, 2-(4-{4-[1-(5-ethyl-pyrimidin-2-yl)-piperidin-4-yloxyimino]-piperidin-1-yl}-2,5-difluoro-phenyl)-N-(1-methyl-piperidin-4-yl)-acetamide]	76 nM
